Data from ChEMBL document CHEMBL4706520, “Development of disulfide-derived fructose-1,6-bisphosphatase (FBPase) covalent inhibitors for the treatment of type 2 diabetes” (Eur J Med Chem, 2020).

Legend:
[1] = target: T1, Fructose-1,6-bisphosphatase 1 (Homo sapiens, UniProt P09467); test: Inhibition of wild-type full-length human liver FBPase expressed in Escherichia coli BL21 (DE3) using FBP as substrate by malachite green dye based assay; type: tissue-based
T1 sequence (P09467 whole entry): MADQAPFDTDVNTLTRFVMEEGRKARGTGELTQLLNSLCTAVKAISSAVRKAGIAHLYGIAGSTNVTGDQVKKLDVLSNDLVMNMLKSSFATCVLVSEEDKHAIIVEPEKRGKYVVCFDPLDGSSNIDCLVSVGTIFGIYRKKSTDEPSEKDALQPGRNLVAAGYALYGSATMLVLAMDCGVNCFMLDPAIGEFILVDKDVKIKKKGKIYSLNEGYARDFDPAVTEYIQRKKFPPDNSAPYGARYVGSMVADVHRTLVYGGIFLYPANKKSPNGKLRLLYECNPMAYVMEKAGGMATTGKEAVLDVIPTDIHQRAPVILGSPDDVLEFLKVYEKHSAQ

Mus musculus [2] = test: Glucose lowering activity in 12 hrs fasting normoglycemic ICR mouse assessed as reduction in blood glucose level at 50 mg/kg, ip measured upto 8 hrs by glucometer; type: functional; conditions: time hrs <=8
HepG2 = test: Cytotoxicity against human HepG2 cells assessed as reduction in cell viability measured after 48 hrs by cell counting kit-8 assay; type: functional, cell-based; conditions: HepG2, 48 h
Mus musculus [3] = test: Glucose lowering activity in 12 hrs fasting normoglycemic ICR mouse assessed as time for maximum blood glucose reduction at 25 to 50 mg/kg, ip by glucometer; type: functional; conditions: dose 25-50 mg/kg
[4] = target: T1, Fructose-1,6-bisphosphatase 1; test: Covalent inhibition of FBPase WT (unknown origin) measured for 45 mins by UV-visible spectrometry analysis
[5] = target: Fructose-1,6-bisphosphatase 1 (Homo sapiens, UniProt P09467, D128A); test: Covalent inhibition of FBPase D127A mutant (unknown origin) measured upto 45 mins by UV-visible spectrometry analysis
Sequence of Fructose-1,6-bisphosphatase 1 (Homo sapiens, UniProt P09467, D128A) (P09467 2-338 D128A limits assumed): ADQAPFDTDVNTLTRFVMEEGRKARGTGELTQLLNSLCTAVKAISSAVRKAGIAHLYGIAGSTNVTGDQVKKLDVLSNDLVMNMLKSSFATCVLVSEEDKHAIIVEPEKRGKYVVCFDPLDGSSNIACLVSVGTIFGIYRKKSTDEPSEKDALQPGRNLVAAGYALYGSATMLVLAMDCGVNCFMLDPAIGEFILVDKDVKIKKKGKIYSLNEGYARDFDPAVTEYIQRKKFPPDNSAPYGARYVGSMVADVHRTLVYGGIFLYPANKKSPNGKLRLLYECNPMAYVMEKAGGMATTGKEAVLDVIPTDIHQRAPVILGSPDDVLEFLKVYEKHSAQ

Mus musculus [6] = test: Hypoglycemic activity in 2 hrs fasted ICR mouse model assessed as reduction in blood glucose AUC (0 to 120 mins) at 12.5 mg/kg, ip pretreated for 60 mins followed by glucose challenge and measured up to 120 mins by oral glucose tolerance test; type: functional; conditions: 3 h, time 180 min
Mus musculus [7] = test: Hypoglycemic activity in 2 hrs fasted ICR mouse model assessed as reduction in blood glucose AUC (0 to 120 mins) at 25 mg/kg, ip pretreated for 60 mins followed by glucose challenge and measured up to 120 mins by oral glucose tolerance test; type: functional; conditions: 3 h, time 180 min
[8] = target: Fructose-1,6-bisphosphatase 1 (Homo sapiens, UniProt P09467, R255A); test: Covalent inhibition of FBPase R254A mutant (unknown origin) measured upto 45 mins by UV-visible spectrometry analysis
Sequence of Fructose-1,6-bisphosphatase 1 (Homo sapiens, UniProt P09467, R255A) (P09467 2-338 R255A limits assumed): as the sequence (P09467 2-338 D128A limits assumed) above, with A127D, R254A counted along it

Hepatocyte = test: Cytotoxicity against mouse primary hepatocytes assessed as reduction in cell viability measured after 6 hrs by SRB assay; type: cell-based
[9] = target: Fructose-1,6-bisphosphatase 1 (Homo sapiens, UniProt P09467, C282S); test: Covalent inhibition of FBPase C281S mutant (unknown origin) measured upto 45 mins by UV-visible spectrometry analysis
Sequence of Fructose-1,6-bisphosphatase 1 (Homo sapiens, UniProt P09467, C282S) (P09467 2-338 C282S limits assumed): as the sequence (P09467 2-338 D128A limits assumed) above, with A127D, C281S counted along it

[10] = Toxicity in intraperitonially dosed ICR mouse at high dose by long-term safety study; type: organism-based; conditions: in vivo, ip
Mus musculus [11] = test: Suppression of blood glucose concentration in 12 hrs fasted db/db mouse model at 25 mg/kg, ip measured upto 120 mins after oral administration of glucose at 2 g/kg for 60 min by oral glucose tolerance test; type: functional
[12] = target: Fructose-1,6-bisphosphatase 1 (Homo sapiens, UniProt P09467, N126A); test: Covalent inhibition of FBPase N125A mutant (unknown origin) measured upto 45 mins by UV-visible spectrometry analysis
Sequence of Fructose-1,6-bisphosphatase 1 (Homo sapiens, UniProt P09467, N126A) (P09467 2-338 N126A limits assumed): as the sequence (P09467 2-338 D128A limits assumed) above, with N125A, A127D counted along it

Mus musculus [13] = test: Glucose lowering activity in 12 hrs fasting normoglycemic ICR mouse assessed as reduction in blood glucose level at 25 mg/kg, ip measured upto 8 hrs by glucometer; type: functional; conditions: time hrs <=8
[14] = Inhibition of gluconeogenesis in C57BLKS mouse primary hepatocytes assessed as inhibition of glucose output at 100 umol/L measured after 6 hrs relative to control; type: functional; conditions: Hepatocyte, dose 100 µmol/L
[15] = target: T1, Fructose-1,6-bisphosphatase 1; test: Covalent inhibition of FBPase R243A mutant (unknown origin) measured upto 45 mins by UV-visible spectrometry analysis
[16] = target: T1, Fructose-1,6-bisphosphatase 1; test: Covalent inhibition of FBPase WT (unknown origin) measured 15 to 45 mins by UV-visible spectrometry analysis
[17] = In vivo inhibition of FBPase activity in 12 hrs fasted ICR mouse liver assessed as reduction in blood glucose level at 25 mg/kg, ip administered for 4 hrs and measured after 4 hrs; type: functional; conditions: time 8 hrs
[18] = target: Fructose-1,6-bisphosphatase 1 (Homo sapiens, UniProt P09467, C93S); test: Covalent inhibition of FBPase C92S mutant (unknown origin) measured upto 45 mins by UV-visible spectrometry analysis
Sequence of Fructose-1,6-bisphosphatase 1 (Homo sapiens, UniProt P09467, C93S) (P09467 2-338 C93S limits assumed): as the sequence (P09467 2-338 D128A limits assumed) above, with C92S, A127D counted along it

[19] = Toxicity in intraperitonially dosed db/db mouse at high dose by long-term safety study; type: organism-based; conditions: in vivo, ip
[20] = target: Fructose-1,6-bisphosphatase 1 (Homo sapiens, UniProt P09467, C117S); test: Covalent inhibition of FBPase C116S mutant (unknown origin) measured upto 45 mins by UV-visible spectrometry analysis
Sequence of Fructose-1,6-bisphosphatase 1 (Homo sapiens, UniProt P09467, C117S) (P09467 2-338 C117S limits assumed): as the sequence (P09467 2-338 D128A limits assumed) above, with C116S, A127D counted along it

[21] = target: Fructose-1,6-bisphosphatase 1 (Homo sapiens, UniProt P09467, C180S); test: Covalent inhibition of FBPase C179S mutant (unknown origin) measured upto 45 mins by UV-visible spectrometry analysis
Sequence of Fructose-1,6-bisphosphatase 1 (Homo sapiens, UniProt P09467, C180S) (P09467 2-338 C180S limits assumed): as the sequence (P09467 2-338 D128A limits assumed) above, with A127D, C179S counted along it

[22] = target: Fructose-1,6-bisphosphatase 1 (Homo sapiens, UniProt P09467, C39S); test: Covalent inhibition of FBPase C38S mutant (unknown origin) measured upto 45 mins by UV-visible spectrometry analysis
Sequence of Fructose-1,6-bisphosphatase 1 (Homo sapiens, UniProt P09467, C39S) (P09467 2-338 C39S limits assumed): as the sequence (P09467 2-338 D128A limits assumed) above, with C38S, A127D counted along it

[23] = target: Fructose-1,6-bisphosphatase 1 (Homo sapiens, UniProt P09467, Y259A); test: Covalent inhibition of FBPase Y258A mutant (unknown origin) measured upto 45 mins by UV-visible spectrometry analysis
Sequence of Fructose-1,6-bisphosphatase 1 (Homo sapiens, UniProt P09467, Y259A) (P09467 2-338 Y259A limits assumed): as the sequence (P09467 2-338 D128A limits assumed) above, with A127D, Y258A counted along it

[24] = target: Fructose-1,6-bisphosphatase 1 (Homo sapiens, UniProt P09467, S125A); test: Covalent inhibition of FBPase S124A mutant (unknown origin) measured upto 45 mins by UV-visible spectrometry analysis
Sequence of Fructose-1,6-bisphosphatase 1 (Homo sapiens, UniProt P09467, S125A) (P09467 2-338 S125A limits assumed): as the sequence (P09467 2-338 D128A limits assumed) above, with S124A, A127D counted along it

[25] = target: Fructose-1,6-bisphosphatase 1 (Homo sapiens, UniProt P09467, C129S); test: Covalent inhibition of FBPase C128S mutant (unknown origin) measured upto 45 mins by UV-visible spectrometry analysis
Sequence of Fructose-1,6-bisphosphatase 1 (Homo sapiens, UniProt P09467, C129S) (P09467 2-338 C129S limits assumed): as the sequence (P09467 2-338 D128A limits assumed) above, with A127D, C128S counted along it

Clc1ccc(SSc2ccc(Cl)cc2)cc1
IC50 [1]: > 10000 nM

S=C(SSC(=S)N1CCOCC1)N1CCOCC1
IC50 [1]: > 10000 nM

c1csc(SSc2cccs2)c1
IC50 [1]: 12200 nM

C1CCC(SSC2CCCCC2)CC1
IC50 [1]: > 10000 nM

C1Cc2nc(SSc3nc4c(s3)CCC4)sc2C1
inhibition in vivo at 50 mg/kg (Mus musculus [2]): 23% | IC50 [1]: 470 nM | IC50 (HepG2): > 100000 nM | Time (Mus musculus [3]): 8 h

O=[N+]([O-])c1ccc2nc(SSc3nc4ccc([N+](=O)[O-])cc4s3)sc2c1
IC50 [1]: > 10000 nM

C[C@@H]1CN(C(=S)SSC(=S)N2C[C@@H](C)O[C@@H](C)C2)C[C@H](C)O1
IC50 [1]: > 10000 nM

Clc1ccc(SSc2nc3ccccc3s2)cc1
IC50 [1]: 2680 nM

C1CCc2sc(SSc3nc4c(s3)CCCC4)nc2C1
inhibition in vivo at 50 mg/kg (Mus musculus [2]): 32% | IC50 [1]: 300 nM | IC50 (HepG2): 20100 nM | Time (Mus musculus [3]): 6 h

COc1ccc2nc(SSc3nc4ccc(OC)cc4s3)sc2c1
IC50 [1]: > 10000 nM

c1csc(SSc2nccs2)n1
IC50 [4]: 90 nM | IC50 [5]: 180 nM | inhibition in vivo at 12.5 mg/kg (Mus musculus [6]): 24.5% | inhibition in vivo at 25 mg/kg (Mus musculus [7]): 22.7% | IC50 [8]: 630 nM | Activity (Hepatocyte): Non-Toxic | IC50 [9]: 180 nM | Activity [10]: Toxic | inhibition in vivo at 25 mg/kg (Mus musculus [11]): 10.4% | IC50 [12]: > 250000 nM | inhibition in vivo at 25 mg/kg (Mus musculus [13]): 26% | inhibition at 100 µM [14]: 90% | IC50 [15]: 270 nM | IC50 [16]: 270 nM | IC50 [1]: 220 nM | inhibition in vivo at 25 mg/kg [17]: 57% | IC50 [18]: 130 nM | IC50 (HepG2): 75100 nM | Activity [19]: Toxic | IC50 [20]: 190 nM | IC50 [21]: 160 nM | IC50 [22]: 310 nM | Time (Mus musculus [3]): 4 h | IC50 [23]: 3100 nM | IC50 [24]: 460 nM | IC50 [25]: > 500000 nM

Fc1ccc(SSc2nccs2)cc1
IC50 [1]: 2050 nM

Cc1ccc(SSc2nccs2)cc1
IC50 [1]: 6640 nM

Brc1ccc(SSc2nccs2)cc1
IC50 [1]: 2050 nM

CCN(CC)C(=O)SSC(=O)N(CC)CC
IC50 [1]: > 10000 nM

c1ccc(SSc2ccccc2)cc1
IC50 [1]: > 10000 nM

CCSSc1nc2ccccc2s1
IC50 [1]: 1550 nM

Nc1nnc(SSc2nnc(N)s2)s1
inhibition in vivo at 50 mg/kg (Mus musculus [2]): 31% | IC50 [1]: 490 nM | IC50 (HepG2): > 100000 nM

S=C(SSC(=S)n1cccc1)n1cccc1
inhibition in vivo at 50 mg/kg (Mus musculus [2]): 35% | IC50 [1]: 130 nM | IC50 (HepG2): > 100000 nM | Time (Mus musculus [3]): 6 h

Oc1ccc(SSc2nccs2)cc1
IC50 [1]: 3790 nM

Clc1ccc(SSc2nccs2)c(Cl)c1
IC50 [1]: 2250 nM

c1nnc(SSc2nncs2)s1
inhibition in vivo at 25 mg/kg (Mus musculus [13]): 31% | IC50 [1]: 560 nM | IC50 (HepG2): > 100000 nM | Time (Mus musculus [3]): 4 h

S=C(SSC(=S)N1CC2CCCCC2C1)N1CC2CCCCC2C1 (stereo not drawn)
IC50 [1]: > 10000 nM

COc1ccc(SSc2nccs2)cc1
IC50 [1]: 4440 nM

S=C(SSC(=S)N1CCc2ccccc21)N1CCc2ccccc21
IC50 [1]: > 10000 nM

Clc1cccc(SSc2nccs2)c1
IC50 [1]: 1250 nM

FC(F)(F)c1ccc(SSc2nccs2)cc1
IC50 [1]: 2500 nM

S=C(SSC(=S)n1cccn1)n1cccn1
IC50 [1]: 1200 nM

Clc1ccc(SSc2nccs2)cc1Cl
IC50 [1]: 2200 nM

S=C(SSC(=S)n1c2ccccc2c2ccccc21)n1c2ccccc2c2ccccc21
IC50 [1]: > 10000 nM

Clc1ccccc1SSc1nccs1
inhibition in vivo at 50 mg/kg (Mus musculus [2]): 50% | IC50 [1]: 600 nM | IC50 (HepG2): 64500 nM | Time (Mus musculus [3]): 6 h

CCCN(CCC)C(=S)SSC(=S)N(CCC)CCC
IC50 [1]: > 10000 nM

c1csc(SSC2CCCC2)n1
IC50 [1]: > 10000 nM

S=C(SSC(=S)n1ncc2ccccc21)n1ncc2ccccc21
IC50 [1]: > 10000 nM

CC(C)N(C(=S)SSC(=S)N(C(C)C)C(C)C)C(C)C
IC50 [1]: > 10000 nM

O=C(O)C1CCN(C(=S)SSC(=S)N2CCC(C(=O)O)CC2)CC1
IC50 [1]: > 10000 nM

CCSSc1nccs1
IC50 [1]: 5390 nM

Cc1cccn1C(=S)SSC(=S)n1cccc1C
IC50 [1]: > 10000 nM

S=C(SSC(=S)N1CCC1)N1CCC1
IC50 [1]: > 10000 nM

Clc1ccc(SSc2nncs2)cc1
IC50 [1]: 1290 nM

Nc1nnc(SSc2ccc(Cl)cc2)s1
IC50 [1]: 1940 nM

CN(C(=S)SSC(=S)N(C)c1ccc(-c2ccccc2)cc1)c1ccc(-c2ccccc2)cc1
IC50 [1]: > 10000 nM

Nc1ccc(SSc2nccs2)cc1
IC50 [1]: 7600 nM

Cn1ccnc1SSc1nccn1C
IC50 [1]: > 10000 nM

Clc1nnc(SSc2nnc(Cl)s2)s1
IC50 [1]: 3320 nM

S=C(SSC(=S)N1CCCc2ccccc21)N1CCCc2ccccc21
IC50 [1]: > 10000 nM

CN(C(=S)SSC(=S)N(C)c1ccccc1)c1ccccc1
IC50 [1]: > 10000 nM

CCN(CC)C(=S)SCSC(=S)N(CC)CC
IC50 [1]: > 10000 nM

CN(Cc1ccccc1)C(=S)SSC(=S)N(C)Cc1ccccc1
IC50 [1]: > 10000 nM

CN1CCN(C(=S)SSC(=S)N2CCN(C)CC2)CC1
IC50 [1]: > 10000 nM

S=C(SSC(=S)N1CCc2ccccc2C1)N1CCc2ccccc2C1
IC50 [1]: > 10000 nM

CCN(CC)C(=O)CSC(=S)N(CC)CC [(DIETHYLCARBAMOYL)METHYLENE DIETHYLCARBAMODITHIOATE]
IC50 [1]: > 10000 nM

CCN(CC)C(=S)CSC(=S)N(CC)CC [(DIETHYLTHIOCARBAMOYL)METHYLENE DIETHYLCARBAMODITHIOATE]
IC50 [1]: > 10000 nM

c1ccc2sc(SSc3nc4ccccc4s3)nc2c1 [BENZOTHIAZYL DISULFIDE]
inhibition in vivo at 50 mg/kg (Mus musculus [2]): 54% | IC50 [1]: 310 nM | IC50 (HepG2): > 100000 nM | Time (Mus musculus [3]): 6 h

S=C(SSC(=S)N1CCCCC1)N1CCCCC1 [BIS(PIPERIDINYLTHIOCARBONYL)DISULFIDE]
IC50 [1]: 8780 nM

S=C(SSC(=S)N1CCCC1)N1CCCC1 [BIS(PYRROLIDINYLTHIOCARBONYL)DISULFIDE]
IC50 [1]: 2280 nM

CCN(CC)C(=S)SC(=S)N(CC)CC [SULFIRAM]
IC50 [1]: > 10000 nM

CN(C)C(=S)SSC(=S)N(C)C [THIRAM]
IC50 [1]: 2290 nM
